Consider 28 compounds from ChEMBL document CHEMBL5247593, “Novel heterocyclic hydroxamates as inhibitors of the mycobacterial zinc metalloprotease Zmp1 to probe its mechanism of function” (Eur J Med Chem, 2022).

pIC50: −log10 of the molar value.

One assay concerns RAW264.7. The experiment in a line: Cytotoxicity against mouse RAW264.7 cells assessed as inhibition of cell growth measured after 72 hrs by resazurin staining based […] analysis. Format: functional. The note with it: RAW264.7, 72 h. (Resazurin is reduced to fluorescent resorufin, in cell work by metabolically active cells.)
In assay [1] the test system is Mycobacterium tuberculosis. The experiment in a line: Antimycobacterial activity against Mycobacterium tuberculosis H37Ra ATCC 25177 assessed as inhibition of bacterial growth at 128 uM measured after 7 days by luminescence based analysis relative to control. In kind it is functional. The note with it: H37Ra ATCC 25177, 168 h, time 7 day.
In assay [2] the test system is Mycobacterium tuberculosis. Put plainly: Inhibition of Mycobacterium tuberculosis Zmp1 at 8 to 40 uM by MALDI-TOF-MS analysis. Particulars: dose 8-40 µM.
The test system of the next assay is MRC5. Put plainly: Cytotoxicity against human MRC5 cells assessed as inhibition of cell growth measured after 72 hrs by resazurin staining based […] analysis. The note with it: MRC5, 72 h. Format: functional.
Assay [3] deals with Mycobacterium tuberculosis. The experiment in a line: Antimycobacterial activity against Mycobacterium tuberculosis H37Ra infected in mouse RAW264.7 cells assessed as reduction in intracellular bacterial survival at 128 uM incubated for 3 days by luminescence based analysis relative to control. Format: functional. Particulars: time 3 day.

As usually defined, the pIC50 is −log10 of the IC50, conventionally taken in molar units. By inhibition is commonly meant the drop in the measured response relative to a control, in per cent. As for `C=CCONC(=O)Cn1cc(C(=O)N[C@@H](C)C(=O)N[C@H](C(=O)O)C(C)C)c2ccccc21`, the pIC50 in the assay with RAW264.7 (read-out: IC50) and in the assay on MRC5 was less than 3.89 each time. Further, the inhibition at 128 µM in assay [1] amounted to 13.6%. This compound displayed an inhibition in assay [2] of 50%.

Take `CC(C)[C@H](NC(=O)CNC(=O)c1ccn(CC(=O)NOCc2ccccc2)c1)C(=O)O`: the negative logarithm of the IC50 (pIC50) in the assay with RAW264.7 (read-out: IC50) and in the assay on MRC5 was less than 3.89 throughout. The inhibition at 128 µM in assay [1] was 5.9%. For the same compound, the inhibition in assay [2] was found to be 70%.

Consider `C=CCONC(=O)Cn1cc(C(=O)NCC(=O)N[C@H](C(=O)O)C(C)C)c2ccccc21`, for which the pIC50 with RAW264.7 (read-out: IC50) and in the assay on MRC5 was less than 3.89 each time. Besides, in assay [1], the inhibition at 128 µM is 10.3%. In assay [2], the inhibition is 56%.

Turning to `COC(=O)[C@@H](NC(=O)c1ccc(/C=C2\SC(=O)N(CC(=O)NOCc3ccccc3)C2=O)cc1)C(C)C`, the Activity in assay [3] came to 83.2%. The pIC50 in the assay with RAW264.7 (read-out: IC50) and in the assay with MRC5 was less than 3.89 each time. Further, the inhibition at 128 µM in assay [1] was 6.2%. For the same compound, the inhibition in assay [2] stood at 41%.

Turning to `C=CCONC(=O)Cn1cc(C(=O)N[C@@H](C)C(=O)N[C@@H](CC(C)C)C(=O)O)c2ccccc21`, the pIC50 in the assay on RAW264.7 (read-out: IC50) and in the assay on MRC5 was less than 3.89 each time. Besides, the inhibition at 128 µM in assay [1] was determined as 12.4%. The compound also returned an inhibition in assay [2] of 86%.

Consider `C=CCONC(=O)Cn1ccc(C(=O)NCC(=O)N[C@@H](CC(C)C)C(=O)O)c1`, for which the pIC50 with RAW264.7 (read-out: IC50) and in the assay on MRC5 was less than 3.89 in each case. In addition, the inhibition at 128 µM in assay [1] was found to be 6.9%. Moreover, the inhibition in assay [2] worked out at 13%.

With `CC(C)C[C@H](NC(=O)CNC(=O)c1ccn(CC(=O)NOCc2ccccc2)c1)C(=O)O`, the negative logarithm of the IC50 (pIC50) in the assay on RAW264.7 (read-out: IC50) and in the assay on MRC5 was less than 3.89 each time. Also, the inhibition at 128 µM in assay [1] turned out to be 9.2%. For the same compound, the inhibition in assay [2] was 26%.

`COc1nc2ccc(Br)cc2cc1[C@@H](c1ccccc1)[C@@](O)(CCN(C)C)c1cccc2ccccc12` [BEDAQUILINE]: the inhibition at 128 µM in assay [1] was 100%.

In the case of `C=CCONC(=O)Cn1cc(C(=O)NCC(=O)N[C@@H](CC(C)C)C(=O)O)c2ccccc21`, the negative logarithm of the IC50 (pIC50) in the assay with RAW264.7 (read-out: IC50) and in the assay on MRC5 was less than 3.89 each time. In addition, in assay [1], the inhibition at 128 µM was found to be 14.6%. The compound further had an inhibition in assay [2] of 47%.

For the compound `C=CCONC(=O)CN1C(=O)S/C(=C\c2cccc(C(=O)N[C@H](C(=O)OC)C(C)C)c2)C1=O`, the Activity in assay [3] turned out to be 14.1%. Also, the pIC50 in the assay with RAW264.7 (read-out: IC50) and in the assay on MRC5 was less than 3.89 each time. In addition, the inhibition at 128 µM in assay [1] came out at 3.4%.

Consider `COC(=O)[C@@H](NC(=O)c1cccc(/C=C2\SC(=O)N(CC(=O)NOCc3ccccc3)C2=O)c1)C(C)C`, for which the Activity in assay [3] is 35.1%. Moreover, the pIC50 in the assay with RAW264.7 (read-out: IC50) and in the assay with MRC5 was less than 3.89 each time. In assay [1], the inhibition at 128 µM is 6.3%.

Turning to `COC(=O)[C@H](CC(C)C)NC(=O)c1cccc(/C=C2\SC(=O)N(CC(=O)NOCc3ccccc3)C2=O)c1`, the Activity in assay [3] is on record as 51.9%. Also, the pIC50 with RAW264.7 (read-out: IC50) and in the assay on MRC5 was less than 3.89 throughout. The inhibition at 128 µM in assay [1] is 4.2%. Moreover, the inhibition in assay [2] came out at 19%.

With `C=CCONC(=O)CN1C(=O)S/C(=C\c2ccc(C(=O)N[C@H](C(=O)OC)C(C)C)cc2)C1=O`, the Activity in assay [3] came out at 28.4%. Moreover, the pIC50 in the assay with RAW264.7 (read-out: IC50) and in the assay with MRC5 was less than 3.89 in each case. In addition, the inhibition at 128 µM in assay [1] came to 8.2%. In addition, in assay [2], the inhibition came to 38%.

For the compound `CC(C)C[C@H](NC(=O)[C@H](C)NC(=O)c1cn(CC(=O)NOCc2ccccc2)c2ccccc12)C(=O)O`, the pIC50 with RAW264.7 (read-out: IC50) and in the assay on MRC5 was less than 3.89 in each case. Moreover, in assay [1], the inhibition at 128 µM is 13.6%. Moreover, the inhibition in assay [2] turned out to be 56%.

As to `CC(C)C[C@H](NC(=O)[C@H](C)NC(=O)c1ccn(CC(=O)NOCc2ccccc2)c1)C(=O)O`, the pIC50 in the assay on RAW264.7 (read-out: IC50) and in the assay with MRC5 was less than 3.89 each time. The inhibition at 128 µM in assay [1] is 3.2%. For the same compound, the inhibition in assay [2] is 62%.

Turning to `C=CCONC(=O)CN1C(=O)S/C(=C\c2cccc(C(=O)N[C@@H](CC(C)C)C(=O)OC)c2)C1=O`, the Activity in assay [3] turned out to be 46.3%. For the same compound, the pIC50 in the assay on RAW264.7 (read-out: IC50) and in the assay with MRC5 was less than 3.89 each time. For the same compound, the inhibition at 128 µM in assay [1] was 3.2%. In addition, in assay [2], the inhibition was 47%.

Take `CC/C(=C(\c1ccccc1)c1ccc(OCCN(C)C)cc1)c1ccccc1` [TAMOXIFEN]: the figures for the negative-log IC50 (pIC50) with RAW264.7 and in the assay with MRC5 were 4.73 and 4.76, respectively.

In the case of `COC(=O)[C@H](CC(C)C)NC(=O)c1ccc(/C=C2\SC(=O)N(CC(=O)NOCc3ccccc3)C2=O)cc1`, the Activity in assay [3] came out at 80.3%. Besides, the pIC50 with RAW264.7 (read-out: IC50) and with MRC5 was less than 3.89 in each case. In assay [1], the inhibition at 128 µM came out at 2%. In addition, the inhibition in assay [2] was determined as 5%.

For `CC(C)[C@H](NC(=O)CNC(=O)c1cn(CC(=O)NOCc2ccccc2)c2ccccc12)C(=O)O`, in assay [3], the Activity is listed as 37.2%. For the same compound, the pIC50 with RAW264.7 (read-out: IC50) and with MRC5 was less than 3.89 in each case. In assay [1], the inhibition at 128 µM amounted to 30.3%. In assay [2], the inhibition amounted to 69%.

On to `CC(C)C[C@H](NC(=O)CNC(=O)c1cn(CC(=O)NOCc2ccccc2)c2ccccc12)C(=O)O`, for which the pIC50 in the assay with RAW264.7 (read-out: IC50) and with MRC5 was less than 3.89 in each case. Moreover, in assay [1], the inhibition at 128 µM was found to be 11.1%. Besides, the inhibition in assay [2] worked out at 57%.

For `NNC(=O)c1ccncc1` [ISONIAZID], the inhibition at 128 µM in assay [1] worked out at 100%.

With `C=CCONC(=O)CN1C(=O)S/C(=C\c2ccc(C(=O)N[C@@H](CC(C)C)C(=O)OC)cc2)C1=O`, in assay [3], the Activity is on record as 67.3%. Moreover, the pIC50 in the assay on RAW264.7 (read-out: IC50) and in the assay with MRC5 was less than 3.89 throughout. For the same compound, in assay [1], the inhibition at 128 µM stood at 4.4%. In assay [2], this compound registered an inhibition of 6%.

`C=CCONC(=O)Cn1ccc(C(=O)NCC(=O)N[C@H](C(=O)O)C(C)C)c1`: the inhibition in assay [2] was found to be 14%.

Consider `CO[C@H]1/C=C/O[C@@]2(C)Oc3c(C)c(O)c4c(O)c(c(/C=N/N5CCN(C)CC5)c(O)c4c3C2=O)NC(=O)/C(C)=C\C=C\[C@H](C)[C@H](O)[C@@H](C)[C@@H](O)[C@@H](C)[C@H](OC(C)=O)[C@@H]1C` [RIFAMPIN], for which the inhibition at 128 µM in assay [1] turned out to be 100%.

As to `CC(C)[C@H](NC(=O)[C@H](C)NC(=O)c1cn(CC(=O)NOCc2ccccc2)c2ccccc12)C(=O)O`, the pIC50 in the assay with RAW264.7 (read-out: IC50) and in the assay with MRC5 was less than 3.89 in each case. Further, the inhibition at 128 µM in assay [1] was determined as 23.6%. Besides, the inhibition in assay [2] turned out to be 59%.

Consider `C=CCONC(=O)Cn1ccc(C(=O)N[C@@H](C)C(=O)N[C@@H](CC(C)C)C(=O)O)c1`, for which the negative logarithm of the IC50 (pIC50) in the assay on RAW264.7 (read-out: IC50) and in the assay on MRC5 was less than 3.89 in each case. Further, the inhibition at 128 µM in assay [1] amounted to 13.8%. In addition, the inhibition in assay [2] worked out at 88%.

For the compound `C=CCONC(=O)Cn1ccc(C(=O)N[C@@H](C)C(=O)N[C@H](C(=O)O)C(C)C)c1`, the negative logarithm of the IC50 (pIC50) in the assay on RAW264.7 (read-out: IC50) and with MRC5 was less than 3.89 each time. Besides, the inhibition at 128 µM in assay [1] turned out to be 12.8%. This compound had an inhibition in assay [2] of 27%.

Take `CC(C)[C@H](NC(=O)[C@H](C)NC(=O)c1ccn(CC(=O)NOCc2ccccc2)c1)C(=O)O`: the pIC50 in the assay on RAW264.7 (read-out: IC50) and with MRC5 was less than 3.89 in each case. Besides, the inhibition at 128 µM in assay [1] is 6.9%. The compound further displayed an inhibition in assay [2] of 16%.
